Experimental data taken from ChEMBL document CHEMBL1201862, “PubChem BioAssay data set” (2004).
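Method: 48-hour compound exposure of cells in 96-well plates, five concentrations, linear interpolation of endpoints. Abbreviation: GI50, concentration required for 50% inhibition of growth.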 Calls of active or inactive are those of the source. Rule as the data show it: active = GI50 up to about 1.1 µM and inactive = higher.

Experiments:
Test in all cases: growth of human tumour cells (NCI), 48 h
BT-549 = test system: BT-549
UACC-62 = test system: UACC-62
U-251 = test system: U-251
HCC 2998 = test system: HCC 2998
HCT-116 = test system: HCT-116
OVCAR-5 = test system: OVCAR-5
MDA-MB-435 = test system: MDA-MB-435
HT-29 = test system: HT-29
SK-MEL-2 = test system: SK-MEL-2
KM12 = test system: KM12
SK-MEL-28 = test system: SK-MEL-28
LOX IMVI = test system: LOX IMVI
UO-31 = test system: UO-31
DU-145 = test system: DU-145
SR = test system: SR
SF-539 = test system: SF-539
K562 = test system: K562
MCF7 = test system: MCF7
UACC-257 = test system: UACC-257

Structure (SMILES) | GI50 (BT-549) | GI50 (UACC-62) | GI50 (U-251) | GI50 (HCC 2998) | GI50 (HCT-116) | GI50 (OVCAR-5) | GI50 (MDA-MB-435) | GI50 (HT-29) | GI50 (SK-MEL-2) | GI50 (KM12) | GI50 (SK-MEL-28) | GI50 (LOX IMVI) | GI50 (UO-31) | GI50 (DU-145) | GI50 (SR) | GI50 (SF-539) | GI50 (K562) | GI50 (MCF7) | GI50 (UACC-257)
CCOC(=O)C(=Cc1ccccc1Br)C(=O)OCC | 2.51 µM (inactive) | 1.72 µM (inactive) | 1.66 µM (inactive) | 2.78 µM (inactive) | 2.95 µM (inactive) | 6.5 µM (inactive) | 1.69 µM (inactive) | 3.36 µM (inactive) | 2.14 µM (inactive) | 1.62 µM (inactive) | 2.4 µM (inactive) | 0.695 µM (active) | 2.25 µM (inactive) | 0.508 µM (active) | 0.208 µM (active) | 2.34 µM (inactive) | 0.656 µM (active) | 1.55 µM (inactive) | 3.58 µM (inactive)
C=CCCC(CCC=C)(C(=O)O)C(=O)O | > 100 µM (inactive) | > 100 µM (inactive) | > 100 µM (inactive) | > 100 µM (inactive) | > 100 µM (inactive) | > 100 µM (inactive) | > 100 µM (inactive) | > 100 µM (inactive) | > 100 µM (inactive) | > 100 µM (inactive) | > 100 µM (inactive) | > 100 µM (inactive) | > 100 µM (inactive) | > 100 µM (inactive) | > 100 µM (inactive) | > 100 µM (inactive) | > 100 µM (inactive) | > 100 µM (inactive) | > 100 µM (inactive)
CCC(C#N)NC(=O)NC(C#N)CC (stereo unspecified) | > 100 µM (inactive) | > 100 µM (inactive) | > 100 µM (inactive) | > 100 µM (inactive) | > 100 µM (inactive) | > 100 µM (inactive) | > 100 µM (inactive) | > 100 µM (inactive) | > 100 µM (inactive) | > 100 µM (inactive) |  | > 100 µM (inactive) | 58.5 µM (inactive) | > 100 µM (inactive) | > 100 µM (inactive) | > 100 µM (inactive) | 50.9 µM (inactive) | > 100 µM (inactive) | > 100 µM (inactive)
C=C1CC(Cn2cc(C)c(=O)[nH]c2=O)(c2ccc(Cl)cc2)OC1=O (stereo unspecified) | 1.51 µM (inactive) | 2.44 µM (inactive) | 16.2 µM (inactive) | 3.8 µM (inactive) | 1.65 µM (inactive) | 14.9 µM (inactive) | 3.85 µM (inactive) | 1.69 µM (inactive) | 2.12 µM (inactive) | 13.6 µM (inactive) | 2.18 µM (inactive) | 1.56 µM (inactive) | 12.9 µM (inactive) | 4.65 µM (inactive) | 1.17 µM (inactive) | 10.9 µM (inactive) | 0.673 µM (active) | 0.933 µM (active) | 1.4 µM (inactive)
COc1ccc(-c2cc3ccccc3oc2=O)cc1OC | > 100 µM (inactive) | > 100 µM (inactive) | > 100 µM (inactive) | > 10 µM (inactive) | > 100 µM (inactive) | > 100 µM (inactive) | > 100 µM (inactive) | > 100 µM (inactive) | > 100 µM (inactive) | > 100 µM (inactive) |  | > 100 µM (inactive) | > 100 µM (inactive) | > 100 µM (inactive) | > 100 µM (inactive) | > 100 µM (inactive) | > 100 µM (inactive) | > 100 µM (inactive) | > 100 µM (inactive)
COc1ccc(NC(=S)N/N=C2\C(=O)Nc3ccccc32)cc1 | 4.74 µM (inactive) | 6.24 µM (inactive) | 5.22 µM (inactive) | 27.2 µM (inactive) | 5.14 µM (inactive) | 65 µM (inactive) | 52.2 µM (inactive) | 7.96 µM (inactive) | 40.1 µM (inactive) | 13 µM (inactive) | 43.1 µM (inactive) | 2.92 µM (inactive) | 5.18 µM (inactive) | 13.6 µM (inactive) | 8.51 µM (inactive) | 6.41 µM (inactive) | 5.69 µM (inactive) | 9.48 µM (inactive) | 47 µM (inactive)
COc1ccc(Cn2nc(OCc3ccccn3)c3cc([N+](=O)[O-])ccc32)cc1 | > 100 µM (inactive) | 35.7 µM (inactive) |  | > 100 µM (inactive) |  | > 100 µM (inactive) | > 100 µM (inactive) | > 100 µM (inactive) | 49.5 µM (inactive) | > 100 µM (inactive) | > 100 µM (inactive) | > 100 µM (inactive) | > 100 µM (inactive) | > 100 µM (inactive) | > 100 µM (inactive) | 33.3 µM (inactive) | > 100 µM (inactive) | > 100 µM (inactive) | > 100 µM (inactive)
Cc1ccc(/C=C2\N=C(N3CCOCC3)NC2=O)cc1 | > 100 µM (inactive) | > 100 µM (inactive) | > 100 µM (inactive) | > 100 µM (inactive) | > 100 µM (inactive) | > 100 µM (inactive) | > 100 µM (inactive) | > 100 µM (inactive) | > 100 µM (inactive) | > 100 µM (inactive) | > 100 µM (inactive) | > 100 µM (inactive) | > 100 µM (inactive) | > 100 µM (inactive) | > 100 µM (inactive) | > 100 µM (inactive) |  | > 100 µM (inactive) | > 100 µM (inactive)
O=C1NC(N2CCCCC2)=N/C1=C\c1ccco1 | > 100 µM (inactive) | > 100 µM (inactive) | > 100 µM (inactive) | > 100 µM (inactive) | > 100 µM (inactive) | > 100 µM (inactive) | > 100 µM (inactive) | 30.3 µM (inactive) | > 100 µM (inactive) | > 100 µM (inactive) | > 100 µM (inactive) | > 100 µM (inactive) | > 100 µM (inactive) | > 100 µM (inactive) | > 100 µM (inactive) | > 100 µM (inactive) |  | > 100 µM (inactive) | > 100 µM (inactive)
Cc1cccc2c(=O)c3c(O)cc4c(c3n(C)c12)C=CC(C)(C)O4 | 23.1 µM (inactive) | > 100 µM (inactive) | > 100 µM (inactive) | > 100 µM (inactive) | 58.9 µM (inactive) | 59.3 µM (inactive) | 70.5 µM (inactive) | 4.63 µM (inactive) | > 100 µM (inactive) | 29 µM (inactive) | > 100 µM (inactive) | 40.3 µM (inactive) |  | > 100 µM (inactive) | 10.4 µM (inactive) | 87.5 µM (inactive) | 11.2 µM (inactive) | 32.7 µM (inactive) | 60.1 µM (inactive)
O=C(O)c1ccc2nc(-c3ccccn3)c(-c3ccccn3)nc2c1 | > 100 µM (inactive) | > 100 µM (inactive) | > 100 µM (inactive) | > 100 µM (inactive) | > 100 µM (inactive) |  | > 100 µM (inactive) | > 100 µM (inactive) | > 100 µM (inactive) | > 100 µM (inactive) | > 100 µM (inactive) | > 100 µM (inactive) | > 100 µM (inactive) | > 100 µM (inactive) | > 100 µM (inactive) | > 100 µM (inactive) | > 100 µM (inactive) | > 100 µM (inactive) | > 100 µM (inactive)
